Where “and” joins values, the source holds several entries; their conditions need not be identical. Identical values can stand only once. Like-named read-outs stand apart in the source and are kept apart here.
Columns and labels:
MRGPRX4 + RAMP2 = biological target: T1, MRGPRX4 + RAMP2 (Homo sapiens, UniProt Q96LA9); experiment: IP1 accumulation, MRGPRX4 coexpressed with RAMP2; format: cell-based; conditions: MRGPRX4+RAMP2 1pg 1:1, Supplementary Figure 5e, 5g
T1 construct: expressed in transfected cells; host or cells: HEK293T
Method: (§1) HEK293T cells were transfected with 1 pg/cell of MRGPRX4 DNA, and the amount of DNA was kept constant at 2 pg/cell with pcDNA3.1(+) empty vector, unless otherwise specified. Twenty four hours after transfection, IP1 assay was performed as previously described ([51]). When applicable, cells were treated with 1 μM YM254890 (YM) or different concentrations of U73122 for 1 h prior to addition of agonist or buffer. After incubation for 2 h, HTRF reagents and IP1 calibration standards were added and incubated for 2 h in the dark at room temperature. Time-resolved fluorescence signals were read on the BioTek Synergy NEO-TRF Hybrid multi-mode reader (BioTek Instruments). All data were carried out in three independent experiments with three technical replicate each.
(§2) For RAMP DNA titration assay, HEK293T cells were cotransfected with a constant amount of 1 pg/cell of FLAG-MRGPRX4-GFP10-1D4 to which a serial dilution of 1, 0.75, 0.5, 0.25, or 0 pg/cell of each HA-RAMP-OLLAS was added. For a homogenous transfection of MRGPRX4, a master mix of MRGPRX4 DNA was made prior to addition of the RAMP DNA. […]
(§3) Data reduction, standard calibration, and transformation of HTRF data were performed as previously described ([51]). Normalized IP1 values were calculated relative to the unstimulated mock-transfected cells (set to 0%) and fully stimulated MRGPRX4 (alone if applicable) (set to 100%).

MRGPRX4 + RAMP3 = biological target: T2, MRGPRX4 + RAMP3 (Homo sapiens, UniProt Q96LA9); experiment: IP1 accumulation, MRGPRX4 coexpressed with RAMP3; format: cell-based; conditions: for activation at 100 µM / activation at 20 µM / activation at 4 µM / activation at 0.8 µM / activation at […] / activation at 0.032 µM: 2 h
T2 construct: expressed in transfected cells; host or cells: HEK293T
Method: as §1, §2, §3

T1 sequence (Q96LA9 whole entry): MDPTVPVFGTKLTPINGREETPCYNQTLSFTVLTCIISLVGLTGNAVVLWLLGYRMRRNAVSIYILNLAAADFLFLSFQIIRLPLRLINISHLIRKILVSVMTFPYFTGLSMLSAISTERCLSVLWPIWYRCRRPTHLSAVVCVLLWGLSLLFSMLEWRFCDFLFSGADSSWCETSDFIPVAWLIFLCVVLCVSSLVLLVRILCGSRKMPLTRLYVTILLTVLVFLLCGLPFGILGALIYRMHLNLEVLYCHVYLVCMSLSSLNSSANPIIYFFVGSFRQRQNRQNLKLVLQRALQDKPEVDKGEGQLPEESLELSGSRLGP
T2 sequence (Q96LA9 whole entry): as above

## CC(C)[C@H]1CC[C@H](C(=O)N[C@H](Cc2ccccc2)C(=O)O)CC1 [Nateglinide]
MRGPRX4 + RAMP2; log [nateglinide] (M) -5.39794
  IP1 accumulation (normalized): 15.3369 and 12.9717 and 15.4367
MRGPRX4 + RAMP2; log [nateglinide] (M) -6.09691
  IP1 accumulation (normalized): 5.582 and 4.886 and 4.986
MRGPRX4 + RAMP2; log [nateglinide] (M) -6.79588
  IP1 accumulation (normalized): 3.625 and 3.074 and 3.358
MRGPRX4 + RAMP2; log [nateglinide] (M) -7.49485
  IP1 accumulation (normalized): 3.035 and 3.588 and 4.695
MRGPRX4 + RAMP3; log [nateglinide] (M) -4, MRGPRX4+RAMP3 0.75pg 1:0.75, Supplementary Figure 5f, read-out: IP1 accumulation (normalized)
  activation at 100 µM: 80.5%
MRGPRX4 + RAMP3; log [nateglinide] (M) -4.69897, MRGPRX4+RAMP3 0.75pg 1:0.75, Supplementary Figure 5f, read-out: IP1 accumulation (normalized)
  activation at 20 µM: 75.4%
MRGPRX4 + RAMP3; log [nateglinide] (M) -5.39794, MRGPRX4+RAMP3 0.5pg 1:0.5, Supplementary Figure 5f, read-out: IP1 accumulation (normalized)
  activation at 4 µM: 44.2%
MRGPRX4 + RAMP3; log [nateglinide] (M) -5.39794, MRGPRX4+RAMP3 0.75pg 1:0.75, Supplementary Figure 5f, read-out: IP1 accumulation (normalized)
  activation at 4 µM: 36.8%
MRGPRX4 + RAMP3; log [nateglinide] (M) -6.09691, MRGPRX4+RAMP3 0.5pg 1:0.5, Supplementary Figure 5f, read-out: IP1 accumulation (normalized)
  activation at 0.8 µM: 21.5%
MRGPRX4 + RAMP3; log [nateglinide] (M) -6.09691, MRGPRX4+RAMP3 0.75pg 1:0.75, Supplementary Figure 5f, read-out: IP1 accumulation (normalized)
  activation at 0.8 µM: 14.8%
MRGPRX4 + RAMP3; log [nateglinide] (M) -6.09691, MRGPRX4+RAMP3 1pg 1:1, Supplementary Figure 5f, 5g, read-out: IP1 accumulation (normalized)
  activation at 0.8 µM: 20.8%
MRGPRX4 + RAMP3; log [nateglinide] (M) -6.79588, MRGPRX4+RAMP3 0.5pg 1:0.5, Supplementary Figure 5f, read-out: IP1 accumulation (normalized)
  activation at […]: 13.1%
MRGPRX4 + RAMP3; log [nateglinide] (M) -6.79588, MRGPRX4+RAMP3 0.75pg 1:0.75, Supplementary Figure 5f, read-out: IP1 accumulation (normalized)
  activation at […]: 12%
MRGPRX4 + RAMP3; log [nateglinide] (M) -7.49485, MRGPRX4+RAMP3 0.5pg 1:0.5, Supplementary Figure 5f, read-out: IP1 accumulation (normalized)
  activation at 0.032 µM: 12.9%
MRGPRX4 + RAMP3; log [nateglinide] (M) -7.49485, MRGPRX4+RAMP3 0.75pg 1:0.75, Supplementary Figure 5f, read-out: IP1 accumulation (normalized)
  activation at 0.032 µM: 9.2%
MRGPRX4 + RAMP3; log [nateglinide] (M) -7.49485, MRGPRX4+RAMP3 1pg 1:1, Supplementary Figure 5f, 5g, read-out: IP1 accumulation (normalized)
  activation at 0.032 µM: 13.1%
MRGPRX4 + RAMP3; ratio MRGPRX4:RAMP3 1:0.25, log [Nateglinide] (M) -4, Fig S3c, read-out: IP1 accumulation
  activation at 100 µM: 75.8%
MRGPRX4 + RAMP3; ratio MRGPRX4:RAMP3 1:0.25, log [Nateglinide] (M) -4.69897, Fig S3c, read-out: IP1 accumulation
  activation at 20 µM: 68.5%
MRGPRX4 + RAMP3; ratio MRGPRX4:RAMP3 1:0.25, log [Nateglinide] (M) -5.39794, Fig S3c, read-out: IP1 accumulation
  activation at 4 µM: 41%
MRGPRX4 + RAMP3; ratio MRGPRX4:RAMP3 1:0.25, log [Nateglinide] (M) -6.09691, Fig S3c, read-out: IP1 accumulation
  activation at 0.8 µM: 25.1%
MRGPRX4 + RAMP3; ratio MRGPRX4:RAMP3 1:0.25, log [Nateglinide] (M) -6.79588, Fig S3c, read-out: IP1 accumulation
  activation at […]: 23.1%
MRGPRX4 + RAMP3; ratio MRGPRX4:RAMP3 1:0.25, log [Nateglinide] (M) -7.49485, Fig S3c, read-out: IP1 accumulation
  activation at 0.032 µM: 21%
MRGPRX4 + RAMP3; ratio MRGPRX4:RAMP3 1:0.5, log [Nateglinide] (M) -4, Fig S3c, read-out: IP1 accumulation
  activation at 100 µM: 91%
MRGPRX4 + RAMP3; ratio MRGPRX4:RAMP3 1:0.5, log [Nateglinide] (M) -4.69897, Fig S3c, read-out: IP1 accumulation
  activation at 20 µM: 74.7%
MRGPRX4 + RAMP3; ratio MRGPRX4:RAMP3 1:0.5, log [Nateglinide] (M) -5.39794, Fig S3c, read-out: IP1 accumulation
  activation at 4 µM: 39.2%
MRGPRX4 + RAMP3; ratio MRGPRX4:RAMP3 1:0.5, log [Nateglinide] (M) -6.09691, Fig S3c, read-out: IP1 accumulation
  activation at 0.8 µM: 21.5%
MRGPRX4 + RAMP3; ratio MRGPRX4:RAMP3 1:0.5, log [Nateglinide] (M) -6.79588, Fig S3c, read-out: IP1 accumulation
  activation at […]: 16.2%
MRGPRX4 + RAMP3; ratio MRGPRX4:RAMP3 1:0.5, log [Nateglinide] (M) -7.49485, Fig S3c, read-out: IP1 accumulation
  activation at 0.032 µM: 16.8%
MRGPRX4 + RAMP3; ratio MRGPRX4:RAMP3 1:1, log [Nateglinide] (M) -4, Fig S3c, read-out: IP1 accumulation
  activation at 100 µM: 86.2%
MRGPRX4 + RAMP3; ratio MRGPRX4:RAMP3 1:1, log [Nateglinide] (M) -4.69897, Fig S3c, read-out: IP1 accumulation
  activation at 20 µM: 67.6%
MRGPRX4 + RAMP3; ratio MRGPRX4:RAMP3 1:1, log [Nateglinide] (M) -5.39794, Fig S3c, read-out: IP1 accumulation
  activation at 4 µM: 32.5%
MRGPRX4 + RAMP3; ratio MRGPRX4:RAMP3 1:1, log [Nateglinide] (M) -6.09691, Fig S3c, read-out: IP1 accumulation
  activation at 0.8 µM: 18.7%
MRGPRX4 + RAMP3; ratio MRGPRX4:RAMP3 1:1, log [Nateglinide] (M) -6.79588, Fig S3c, read-out: IP1 accumulation
  activation at […]: 15.5%
MRGPRX4 + RAMP3; ratio MRGPRX4:RAMP3 1:1, log [Nateglinide] (M) -7.49485, Fig S3c, read-out: IP1 accumulation
  activation at 0.032 µM: 13.9%
MRGPRX4 + RAMP3; ratio MRGPRX4:RAMP3 1:2, log [Nateglinide] (M) -4, Fig S3c, read-out: IP1 accumulation
  activation at 100 µM: 83.7%
MRGPRX4 + RAMP3; ratio MRGPRX4:RAMP3 1:2, log [Nateglinide] (M) -5.39794, Fig S3c, read-out: IP1 accumulation
  activation at 4 µM: 28.1%
MRGPRX4 + RAMP3; ratio MRGPRX4:RAMP3 1:2, log [Nateglinide] (M) -6.09691, Fig S3c, read-out: IP1 accumulation
  activation at 0.8 µM: 16.1%
MRGPRX4 + RAMP3; ratio MRGPRX4:RAMP3 1:2, log [Nateglinide] (M) -6.79588, Fig S3c, read-out: IP1 accumulation
  activation at […]: 14.2%
MRGPRX4 + RAMP3; ratio MRGPRX4:RAMP3 1:2, log [Nateglinide] (M) -7.49485, Fig S3c, read-out: IP1 accumulation
  activation at 0.032 µM: 12.5%
MRGPRX4 + RAMP3; Figure 4a bottom, DNA ratio MRGPRX4:RAMP3 1:0.5, MRGPRX4 alone = 100, read-out: efficacy
  Emax: 86.9%

Source: paper PMC10165273, “Itch receptor MRGPRX4 interacts with the receptor activity–modifying proteins” (The Journal of Biological Chemistry, 2023)
